Key:
visceral pain = assay: Visceral pain, acetic acid induced writhing responses; assay type: in vivo, ICR mice; conditions: for number of writhing responses: alone or combined with 0.5 mg/kg CPZ; for reduction of writhing responses as compared to vehicle treated animals: second study
Protocol: For the i.v. part of the study, compounds were dissolved in CREMOPHOR®:Ethanol and diluted 1:20 in saline prior to injection, fifteen minutes before pain induction. When compounds were delivered per os, they were dissolved in phosphate buffer or in CREMOPHOR®:Ethanol as previously described and administered 1 hour before pain induction. Each treatment group, except for controls comprising at least 30 animals, was composed of at least 6 animals. Fifteen or sixty minutes later, depending on the route selected for drug administration, the mice were injected i.p. with 10 ml/kg of 0.6% acetic acid and the number of visceral pain related behaviors (writhing, stretching, contractions of the abdomen accompanied by an elongation of the body and extension of the hind limbs) is counted over a period of 5 minutes, starting 5 minutes after the acetic acid administration. These visceral pain related behaviors are globally defined as writhing responses (WR). The results are expressed as mean number of writhing responses±SEM. Data were analyzed using analysis of variance (ANOVA) followed by post-hoc Fisher test. A value of p<0.05 was considered to be statistically significant and is indicated on the figure by an asterisk over the relevant treatment group.
The following results were obtained at 2 mg/kg i.v. of test compounds or, in the case of the study performed with cannabinoid receptor antagonists, 1 mg/kg test compound or antagonist alone and 1 mg/kg test compound+1 mg/kg antagonist. In a separate study, it was shown that analgesic activity of compounds of the invention was dose related.

CB1 receptor = CB1 receptor (Homo sapiens, UniProt P21554); assay: CB1 binding assay
MBP induced acute EAE = assay: MBP induced acute EAE; assay type: in vivo, Lewis rats
Protocol: In the present study, EAE was induced by injection of Myelin Basic Protein (MBP), a method known to model the acute phase of MS. In this model the onset of the disease is observed by the appearance of clinical symptoms about 10 days after induction. The disease progresses and the clinical score increases and peaks around day 15 and spontaneous recovery is observed around day 23 after induction of the disease.
Female Lewis rats (average body weight 130-180 g, Harlan, Israel) were injected s.c. into the hind paws with 25 μg of purified guinea pig myelin basic protein (MBP, Sigma) emulsified in 0.1 ml of Complete Freund's Adjuvant (Difco). Animals were maintained on a 12 hours light/12 hours dark regimen, at a constant temperature of 22° C., with food and water ad libitum. Starting from day 8 following induction, animals were followed up on a daily basis. The results are recorded as clinical score; score of 0 indicates a normal animal with no clinical signs, 0.5 indicates a loss of tonicity in the tail's distal part, 1 indicates whole tail paralysis, 1.5 indicates hind legs weakness in one leg, 2 indicates hind legs weakness in two legs, 2.5 indicates fore legs paralysis in one leg, 3 indicates paralysis of all four legs, 4 indicates complete body paralysis and moribund state and 5 indicates death. The clinical score of the animals is recorded for 15 days following onset of disease until the end of the study 25 days following induction and the area under the curve (AUC) is calculated over this period of time.
Few routes of administration were assessed and the treatments were either administered intravenously (in CE vehicle) or orally by gavage (in PB vehicle) at volume dose of 5 ml/kg.
Results are expressed as mean±SEM and the differences between the treatment groups were analyzed by analysis of variance (ANOVA) followed by Tukey's post hoc test. A value of p<0.05 was considered to be statistically significant and is indicated on the figure by an asterisk over the relevant treatment group.
Compound 18A was dissolved in CREMOPHOR EL®:ethanol and further diluted in physiological buffer prior to i.v. administration. It is now disclosed that compound 18F could be dissolved directly in 80 mM phosphate buffer (pH 6.4) and administered p.o. Compound 18F was administered by oral gavage at doses of 20, 30, 40, 50 and 60 mg/kg to animals showing clinical signs of the disease. Each treatment group comprised at least 10 animals at onset of disease. At some doses, experiments were repeated up to four times.

Chain of CB1 receptor (P21554 whole entry): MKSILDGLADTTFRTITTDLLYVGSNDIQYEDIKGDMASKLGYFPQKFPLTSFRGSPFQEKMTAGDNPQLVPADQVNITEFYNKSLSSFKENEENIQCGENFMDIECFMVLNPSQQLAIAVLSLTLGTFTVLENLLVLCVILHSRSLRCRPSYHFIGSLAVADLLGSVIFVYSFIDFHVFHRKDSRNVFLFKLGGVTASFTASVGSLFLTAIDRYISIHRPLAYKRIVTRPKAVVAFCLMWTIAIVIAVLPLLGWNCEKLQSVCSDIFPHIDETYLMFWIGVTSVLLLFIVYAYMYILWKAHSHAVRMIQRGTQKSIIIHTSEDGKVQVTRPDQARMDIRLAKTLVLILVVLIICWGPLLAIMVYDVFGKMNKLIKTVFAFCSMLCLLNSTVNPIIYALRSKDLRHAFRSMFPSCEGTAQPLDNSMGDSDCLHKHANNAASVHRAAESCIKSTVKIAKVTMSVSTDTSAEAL

CCCCCCC(C)(C)c1cc(O)c([C@H]2CC(=O)C3CC2C3(C)C)c(OC(=O)/C=C/C(=O)O)c1 (single isomer, unassigned; (-)) [Compound 18F, (−)-4-{4-[1,1-Dimethylheptyl]-2-fumarate-6-hydroxy-phenyl}-6,6-dimethyl-bicyclo[3.1.1]heptan-2-one]
number of writhing responses (visceral pain; 0.5 mg/kg compound 18F i.v.): 10 | reduction of writhing responses as compared to vehicle treated animals (visceral pain; 0.5 mg/kg i.v.): 64% | number of writhing responses (visceral pain; 1 mg/kg compound 18F i.v.): 9 | inhibition of the number of writhing responses (visceral pain; 1 mg/kg i.v.): 71% | effect of addition of CB1 antagonist on analgesic activity (visceral pain; 1 mg/kg i.v. + 1 mg/kg SR141716A): only partially reversed | effect of addition of CB2 antagonist on analgesic activity (visceral pain; 1 mg/kg i.v. + 1 mg/kg SR144528): significantly reversed | inhibition of writhing responses as compared to vehicle treated group (visceral pain; 2 mg/kg i.v.): 94% | reduction of writhing responses as compared to vehicle treated animals (visceral pain; 2 mg/kg i.v.): 98% | inhibition of writhing responses (visceral pain; 10 mg/kg p.o. in CREMOPHOR®:Ethanol): 71% | inhibition of pain response as compared to untreated animals (visceral pain; 10 mg/kg p.o. in phosphate buffer): 61% | dose from which reduction of writhing responses was significant (visceral pain; p.o. in phosphate buffer): 10 mg/kg | inhibition of writhing responses (visceral pain; p.o. in phosphate buffer, highest dose tested (5 to 60 mg/kg)): 93% | IC50 (CB1 receptor): 334 nM | effect on clinical outcome (mean group score) (MBP induced acute EAE; 20 mg/kg p.o.): does not significantly affect the clinical outcome | effect on mean of maximal scores (MMS) (MBP induced acute EAE; 20 mg/kg p.o.): only a trend of improvement | effect on clinical outcome (mean group score) (MBP induced acute EAE; 30 mg/kg p.o.): positive trend of score reduction | reduction of AUC (MBP induced acute EAE; 30 mg/kg p.o., ns): more than 20% | reduction of AUC (MBP induced acute EAE; 40 mg/kg p.o., p<0.05): 33% | reduction of AUC (MBP induced acute EAE; 50 mg/kg p.o., p<0.05): 42% | animals died before study completion (MBP induced acute EAE; 60 mg/kg p.o.): 7% | reduction of AUC (MBP induced acute EAE; 60 mg/kg p.o., p<0.05): 43% | increase of pain threshold over vehicle treated animals (mechanical hyperalgesia) (MBP induced acute EAE; 60 mg/kg p.o., preliminary): 25% | reduction in MMS (MBP induced acute EAE; 30-60 mg/kg p.o.): at least 30% | CB1 mediated side effects (MBP induced acute EAE; repeated p.o. administration): no CB1 mediated side effects were observed

Reference: patent US20090068143A1, “ORALLY EFFECTIVE C[…]” (priority 2005, published 2009)
